Experimental data as given in PubChem BioAssay (NCI).
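Growth conditions: 96-well plates. Treatment: test compound, 48 hours, 5 concentrations. Analysis: linear interpolation between bracketing concentrations; unreached endpoints set to highest concentration. TGI denotes the concentration required for complete inhibition of growth.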

Key:
Assay in all cases: DTP human tumour cell line panel, 48 h
SF-295 CNS = tested on: SF-295 CNS
HL-60(TB) leukemia = tested on: HL-60(TB) leukemia
SK-MEL-5 melanoma = tested on: SK-MEL-5 melanoma
A498 renal = tested on: A498 renal
K-562 leukemia = tested on: K-562 leukemia
TK-10 renal = tested on: TK-10 renal
MDA-N = tested on: MDA-N
NCI-H23 lung = tested on: NCI-H23 lung
HCC-2998 colon = tested on: HCC-2998 colon
HCT-116 colon = tested on: HCT-116 colon
RXF 393 renal = tested on: RXF 393 renal
ACHN renal = tested on: ACHN renal
HOP-62 NSCLC = tested on: HOP-62 NSCLC
DU-145 prostate = tested on: DU-145 prostate
PC-3 prostate = tested on: PC-3 prostate
BT-549 breast = tested on: BT-549 breast
M14 melanoma = tested on: M14 melanoma
HT29 colon = tested on: HT29 colon
SNB-19 CNS = tested on: SNB-19 CNS
EKVX NSCLC = tested on: EKVX NSCLC
NCI-H522 lung = tested on: NCI-H522 lung
SW-620 colon = tested on: SW-620 colon
MDA-MB-435 = tested on: MDA-MB-435
KM12 colon = tested on: KM12 colon
SK-OV-3 ovarian = tested on: SK-OV-3 ovarian
IGROV1 ovarian = tested on: IGROV1 ovarian
UACC-257 melanoma = tested on: UACC-257 melanoma
COLO 205 colon = tested on: COLO 205 colon
OVCAR-4 ovarian = tested on: OVCAR-4 ovarian
CAKI-1 renal = tested on: CAKI-1 renal
MDA-MB-231 breast = tested on: MDA-MB-231 breast
HOP-92 NSCLC = tested on: HOP-92 NSCLC
SK-MEL-2 melanoma = tested on: SK-MEL-2 melanoma
CCRF-CEM leukemia = tested on: CCRF-CEM leukemia
OVCAR-5 ovarian = tested on: OVCAR-5 ovarian
UO-31 renal = tested on: UO-31 renal
SF-268 CNS = tested on: SF-268 CNS
A549 NSCLC = tested on: A549 NSCLC
T-47D breast = tested on: T-47D breast
MALME-3M melanoma = tested on: MALME-3M melanoma
NCI/ADR-RES ovarian = tested on: NCI/ADR-RES ovarian
HS 578T breast = tested on: HS 578T breast
786-0 renal = tested on: 786-0 renal
OVCAR-3 ovarian = tested on: OVCAR-3 ovarian
SK-MEL-28 melanoma = tested on: SK-MEL-28 melanoma
MCF7 breast = tested on: MCF7 breast
NCI-H460 lung = tested on: NCI-H460 lung
SF-539 CNS = tested on: SF-539 CNS
UACC-62 melanoma = tested on: UACC-62 melanoma
NCI-H226 lung = tested on: NCI-H226 lung
SN12C renal = tested on: SN12C renal
MOLT-4 leukemia = tested on: MOLT-4 leukemia
OVCAR-8 ovarian = tested on: OVCAR-8 ovarian
SR leukemia = tested on: SR leukemia
LOX IMVI melanoma = tested on: LOX IMVI melanoma
SNB-75 CNS = tested on: SNB-75 CNS
RPMI-8226 leukemia = tested on: RPMI-8226 leukemia

With N=c1ccc2c(c1)[nH]c1c3ccccc3[nH]c3cccc2c31 as the molecule, how does the TGI (SF-295 CNS) read?
Its TGI is 2.61 µM.

And the TGI (HL-60(TB) leukemia)?
The TGI was over 100 µM.

What about the TGI (SK-MEL-5 melanoma) of the same molecule?
The TGI was 3.17 µM.

What about the TGI (A498 renal) of the same molecule?
Its TGI is 3.2 µM.

And the TGI (K-562 leukemia)?
Its TGI is over 100 µM.

And the TGI (TK-10 renal)?
The TGI was 3.62 µM.

What about the TGI (MDA-N) of the same molecule?
The TGI was 2.76 µM.

And the TGI (NCI-H23 lung)?
The TGI was 2.94 µM.

What about the TGI (HCC-2998 colon) of the same molecule?
Its TGI is 2.44 µM.

And the TGI (HCT-116 colon)?
The TGI was 2.8 µM.

And the TGI (RXF 393 renal)?
Its TGI is 3.09 µM.

And the TGI (ACHN renal)?
Its TGI is 2.74 µM.

What about the TGI (HOP-62 NSCLC) of the same molecule?
Its TGI is 2.58 µM.

And the TGI (DU-145 prostate)?
Its TGI is 2.95 µM.

And the TGI (PC-3 prostate)?
Its TGI is 2.97 µM.

What about the TGI (BT-549 breast) of the same molecule?
Its TGI is 13.1 µM.

And the TGI (M14 melanoma)?
The TGI was 3.65 µM.

What about the TGI (HT29 colon) of the same molecule?
The TGI was 2.47 µM.

What about the TGI (SNB-19 CNS) of the same molecule?
The TGI was 3 µM.

What about the TGI (EKVX NSCLC) of the same molecule?
Its TGI is 3.1 µM.

And the TGI (NCI-H522 lung)?
Its TGI is 3.06 µM.

What about the TGI (SW-620 colon) of the same molecule?
Its TGI is 2.02 µM.

And the TGI (MDA-MB-435)?
Its TGI is 3.2 µM.

And the TGI (KM12 colon)?
The TGI was 2.6 µM.

And the TGI (SK-OV-3 ovarian)?
The TGI was 3 µM.

What about the TGI (IGROV1 ovarian) of the same molecule?
The TGI was 2.67 µM.

What about the TGI (UACC-257 melanoma) of the same molecule?
Its TGI is 3.52 µM.

And the TGI (COLO 205 colon)?
The TGI was 2.67 µM.

And the TGI (OVCAR-4 ovarian)?
Its TGI is 3.23 µM.

And the TGI (CAKI-1 renal)?
The TGI was 3.02 µM.

What about the TGI (MDA-MB-231 breast) of the same molecule?
The TGI was 2.69 µM.

What about the TGI (HOP-92 NSCLC) of the same molecule?
Its TGI is 3.22 µM.

What about the TGI (SK-MEL-2 melanoma) of the same molecule?
The TGI was 3.14 µM.

What about the TGI (CCRF-CEM leukemia) of the same molecule?
Its TGI is over 100 µM.

What about the TGI (OVCAR-5 ovarian) of the same molecule?
The TGI was 3.16 µM.

And the TGI (UO-31 renal)?
Its TGI is 3.14 µM.

N#CC(c1cc2c(cc1Br)OCO2)N1CCOCC1 (stereo not given) was tested. Which TGI (SF-268 CNS) did it give?
Its TGI is over 100 µM.

What about the TGI (SF-295 CNS) of the same molecule?
Its TGI is over 100 µM.

What about the TGI (HL-60(TB) leukemia) of the same molecule?
The TGI was 25.7 µM.

What about the TGI (SK-MEL-5 melanoma) of the same molecule?
Its TGI is over 100 µM.

And the TGI (A549 NSCLC)?
The TGI was over 100 µM.

And the TGI (T-47D breast)?
The TGI was over 100 µM.

What about the TGI (K-562 leukemia) of the same molecule?
The TGI was 57.1 µM.

What about the TGI (MALME-3M melanoma) of the same molecule?
Its TGI is over 100 µM.

And the TGI (NCI/ADR-RES ovarian)?
The TGI was over 100 µM.

And the TGI (TK-10 renal)?
The TGI was over 100 µM.

And the TGI (MDA-N)?
The TGI was over 100 µM.

And the TGI (NCI-H23 lung)?
The TGI was over 100 µM.

What about the TGI (HCC-2998 colon) of the same molecule?
Its TGI is over 100 µM.

What about the TGI (HCT-116 colon) of the same molecule?
The TGI was over 100 µM.

And the TGI (RXF 393 renal)?
Its TGI is 51.6 µM.

What about the TGI (ACHN renal) of the same molecule?
Its TGI is over 100 µM.

And the TGI (HOP-62 NSCLC)?
Its TGI is over 100 µM.

And the TGI (HS 578T breast)?
Its TGI is 83.8 µM.

What about the TGI (786-0 renal) of the same molecule?
The TGI was over 100 µM.

What about the TGI (OVCAR-3 ovarian) of the same molecule?
The TGI was over 100 µM.

And the TGI (DU-145 prostate)?
Its TGI is over 100 µM.

What about the TGI (PC-3 prostate) of the same molecule?
Its TGI is 71.2 µM.

What about the TGI (SK-MEL-28 melanoma) of the same molecule?
The TGI was over 100 µM.

And the TGI (M14 melanoma)?
Its TGI is over 100 µM.

What about the TGI (HT29 colon) of the same molecule?
Its TGI is over 100 µM.

What about the TGI (SNB-19 CNS) of the same molecule?
Its TGI is over 100 µM.

And the TGI (MCF7 breast)?
Its TGI is over 100 µM.

What about the TGI (EKVX NSCLC) of the same molecule?
Its TGI is over 100 µM.

What about the TGI (NCI-H460 lung) of the same molecule?
Its TGI is over 100 µM.

And the TGI (NCI-H522 lung)?
Its TGI is over 100 µM.

What about the TGI (SF-539 CNS) of the same molecule?
The TGI was 92.1 µM.

What about the TGI (SW-620 colon) of the same molecule?
Its TGI is over 100 µM.

And the TGI (MDA-MB-435)?
The TGI was 18.4 µM.

What about the TGI (KM12 colon) of the same molecule?
The TGI was over 100 µM.

And the TGI (SK-OV-3 ovarian)?
Its TGI is over 100 µM.

And the TGI (IGROV1 ovarian)?
Its TGI is over 100 µM.

What about the TGI (UACC-257 melanoma) of the same molecule?
Its TGI is over 100 µM.

And the TGI (UACC-62 melanoma)?
The TGI was over 100 µM.

And the TGI (COLO 205 colon)?
The TGI was over 100 µM.

What about the TGI (NCI-H226 lung) of the same molecule?
Its TGI is over 100 µM.

What about the TGI (SN12C renal) of the same molecule?
Its TGI is over 100 µM.

What about the TGI (OVCAR-4 ovarian) of the same molecule?
The TGI was over 100 µM.

What about the TGI (MOLT-4 leukemia) of the same molecule?
Its TGI is over 100 µM.

And the TGI (CAKI-1 renal)?
Its TGI is over 100 µM.

And the TGI (MDA-MB-231 breast)?
The TGI was over 100 µM.

What about the TGI (OVCAR-8 ovarian) of the same molecule?
The TGI was over 100 µM.

And the TGI (HOP-92 NSCLC)?
The TGI was over 100 µM.

What about the TGI (SR leukemia) of the same molecule?
Its TGI is 60.3 µM.

What about the TGI (CCRF-CEM leukemia) of the same molecule?
Its TGI is over 100 µM.

And the TGI (OVCAR-5 ovarian)?
The TGI was over 100 µM.

What about the TGI (LOX IMVI melanoma) of the same molecule?
Its TGI is over 100 µM.

And the TGI (UO-31 renal)?
Its TGI is over 100 µM.

What about the TGI (SNB-75 CNS) of the same molecule?
Its TGI is 99.6 µM.

And the TGI (RPMI-8226 leukemia)?
The TGI was over 100 µM.
